In ChEMBL document CHEMBL1221220, “Transport and signaling via the amino acid binding site of the yeast Gap1 amino acid transceptor” (Nat Chem Biol, 2009):
Changes are numbered by the printed parent chain. The source made the active and inactive calls. The rule behind the calls is not given here.

What was measured:
[1] = test system: T1, General amino-acid permease GAP1 (Saccharomyces cerevisiae), P19145 [A385C]; test: Induction of yeast Gap1 A385C mutant-mediated amino acid uptake at 2 mM in presence of 10 mM MTSEA treated before compound addition
T1 sequence (whole entry): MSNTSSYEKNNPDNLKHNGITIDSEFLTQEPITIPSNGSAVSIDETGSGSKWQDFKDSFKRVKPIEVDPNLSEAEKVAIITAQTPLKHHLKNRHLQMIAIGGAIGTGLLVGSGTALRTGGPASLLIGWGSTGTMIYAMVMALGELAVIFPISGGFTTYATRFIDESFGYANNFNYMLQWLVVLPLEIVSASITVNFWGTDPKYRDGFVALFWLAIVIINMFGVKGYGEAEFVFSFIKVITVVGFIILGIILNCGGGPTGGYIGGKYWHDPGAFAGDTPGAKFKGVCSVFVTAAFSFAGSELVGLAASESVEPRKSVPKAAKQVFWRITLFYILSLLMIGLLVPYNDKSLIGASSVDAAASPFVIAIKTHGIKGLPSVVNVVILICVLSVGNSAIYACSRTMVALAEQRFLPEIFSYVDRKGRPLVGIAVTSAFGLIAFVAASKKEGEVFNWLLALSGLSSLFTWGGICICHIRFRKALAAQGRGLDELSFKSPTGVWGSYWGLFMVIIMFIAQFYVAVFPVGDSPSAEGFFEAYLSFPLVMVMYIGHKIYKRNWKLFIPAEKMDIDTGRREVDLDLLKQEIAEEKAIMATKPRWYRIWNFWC

[2] = test system: T1, General amino-acid permease GAP1 (Saccharomyces cerevisiae), P19145 [A385C]; test: Activation of yeast Gap1 A385C mutant-mediated amino acid uptake at 10 mM
[3] = test system: T2, General amino-acid permease GAP1 (Saccharomyces cerevisiae), P19145 [M401C]; test: Induction of yeast Gap1 M401C mutant-mediated trehalose activation at 10 mM
T2 sequence (whole entry): T1 sequence (whole entry) with C385A, M401C

[4] = test system: T3, General amino-acid permease GAP1 (Saccharomyces cerevisiae), P19145 [R399C]; test: Induction of yeast Gap1 R399C mutant-mediated trehalose activation at 10 mM
T3 sequence (whole entry): T1 sequence (whole entry) with C385A, R399C

[5] = test system: T4, General amino-acid permease GAP1 (Saccharomyces cerevisiae), P19145 [S398C]; test: Induction of yeast Gap1 S398C mutant-mediated amino acid uptake at 2 mM in presence of 10 mM MTSEA treated before compound addition
T4 sequence (whole entry): T1 sequence (whole entry) with C385A, S398C

NC(=O)NCCC[C@H](N)C(=O)O
Activity [1]: Active | Activity [2]: inactive | Activity [3]: inactive | Activity [4]: inactive | Activity [5]: Active
